Measurements reported in patent US9439432B2, “Phenylisoxazoline-based compound having herbicidal activity and use thereof” (MOGHU RESEARCH CENTER LTD, priority 2011, dated 2016).

Experiments:
Assay type in all cases: in vivo
[1] = system: Echinochloa crusgalli; assay: Pre-emergence treatment, herbicidal efficacy on barnyardgrass; details: 4 weeks after spraying
Experimental: (§1) A rectangular plastic pot having a surface area of 300 cm^2 was filled with sandy loam soil and mixed bed soil which were mixed at a ratio of 1:1, and then, barnyardrass (Echinochloa crusgalli), large crabgrass (Digitaria sanguinalis), blackgrass (Alopecurus myosuroides), and annual bluegrass (Poa annua), which are grass weeds, were seeded thereto. In a pot that was prepared as described above, seeds of corn, soybean, cotton, wheat, and rice were seeded. The pots were irrigated, and one day after, chemicals were sprayed thereto. The spraying was performed by using a track sprayer (R&D Sprayer, USA) equipped with a Teejet 8002 (Spraying Systems Co., USA) nozzle, and a spraying amount was adjusted at 300 L/ha. A spraying solution was prepared by dissolving test materials or references in acetone and adding the same amount of 0.2%(v/v) tween 20 aqueous solution thereto. Application rates were 500, 250, 125, and 62.5 g/ha. The pots were placed in a greenhouse in which during day, the temperature was maintained at a temperature of 25 to 30° C., and during night, the temperature was maintained at a temperature of 15 to 25° C., and the pots were periodically irrigated. Four weeks after the spraying the test materials or References, effects and phytotoxicity of the respective weeds and crops were evaluated in a scale of 0 to 10 (0: no effects, 10: complete death), and results thereof are shown in Table 4 below.

[2] = system: Soybean; assay: Pre-emergence treatment, phytotoxicity to soybean; details: 500 g/ha, 4 weeks after spraying, scale 0 to 10 (0: no effects, 10: complete death)
Experimental: as §1

[3] = system: Wheat; assay: Post-emergence treatment, phytotoxicity to wheat; details: post-emergence (about 3 leaf stage), 1,000 g/ha, 4 weeks after spraying, scale 0 to 10 (0: no effects, 10: complete death)
Experimental: as §1
(§2) Pots containing crops and weeds were prepared in the same manner as in Example 7, and then, in the second week in which crops and weeds entered into about 3 leaf stage, the test materials and the references were sprayed thereto in the same manner as described above. The rates were 1,000, 500, 250, and 125 g/ha. Four weeks after the spraying of the test materials or the references, herbicidal efficacy and phytotoxicity to the respective weeds and crops were evaluated in a scale of 0 to 10 (0: no effects, 10: complete death).

[4] = system: Digitaria sanguinalis; assay: Pre-emergence treatment, herbicidal efficacy on large crabgrass; details: 4 weeks after spraying, scale 0 to 10
Experimental: as §1

[5] = system: Digitaria sanguinalis; assay: Post-emergence treatment, herbicidal efficacy on large crabgrass; details: 4 weeks after spraying, scale 0 to 10
Experimental: as §1, §2

[6] = system: Alopecurus myosuroides; assay: Post-emergence treatment, herbicidal efficacy on blackgrass; details: 4 weeks after spraying, scale 0 to 10
Experimental: as §1, §2

[7] = system: Cotton; assay: Post-emergence treatment, phytotoxicity to cotton; details: post-emergence (about 3 leaf stage), 1,000 g/ha, 4 weeks after spraying, scale 0 to 10 (0: no effects, 10: complete death)
Experimental: as §1, §2

[8] = system: Poa annua; assay: Post-emergence treatment, herbicidal efficacy on annual bluegrass; details: 4 weeks after spraying, scale 0 to 10
Experimental: as §1, §2

[9] = system: Cotton; assay: Pre-emergence treatment, phytotoxicity to cotton; details: 500 g/ha, 4 weeks after spraying, scale 0 to 10 (0: no effects, 10: complete death)
Experimental: as §1

[10] = system: Poa annua; assay: Pre-emergence treatment, herbicidal efficacy on annual bluegrass; details: 4 weeks after spraying, scale 0 to 10
Experimental: as §1

[11] = system: Corn; assay: Post-emergence treatment, phytotoxicity to corn; details: post-emergence (about 3 leaf stage), 1,000 g/ha, 4 weeks after spraying, scale 0 to 10 (0: no effects, 10: complete death)
Experimental: as §1, §2

[12] = system: Echinochloa crusgalli; assay: Post-emergence treatment, herbicidal efficacy on barnyardgrass; details: 4 weeks after spraying, scale 0 to 10
Experimental: as §1, §2

[13] = system: Wheat; assay: Pre-emergence treatment, phytotoxicity to wheat; details: 500 g/ha, 4 weeks after spraying, scale 0 to 10 (0: no effects, 10: complete death)
Experimental: as §1

[14] = system: Corn; assay: Pre-emergence treatment, phytotoxicity to corn; details: 500 g/ha, 4 weeks after spraying, scale 0 to 10 (0: no effects, 10: complete death)
Experimental: as §1

[15] = system: Rice; assay: Pre-emergence treatment, phytotoxicity to rice; details: 500 g/ha, 4 weeks after spraying, scale 0 to 10 (0: no effects, 10: complete death)
Experimental: as §1

[16] = system: Alopecurus myosuroides; assay: Pre-emergence treatment, herbicidal efficacy on blackgrass; details: 4 weeks after spraying, scale 0 to 10
Experimental: as §1

[17] = system: Soybean; assay: Post-emergence treatment, phytotoxicity to soybean; details: post-emergence (about 3 leaf stage), 1,000 g/ha, 4 weeks after spraying, scale 0 to 10 (0: no effects, 10: complete death)
Experimental: as §1, §2

[18] = system: Rice; assay: Post-emergence treatment, phytotoxicity to rice; details: post-emergence (about 3 leaf stage), 1,000 g/ha, 4 weeks after spraying, scale 0 to 10 (0: no effects, 10: complete death)
Experimental: as §1, §2

[19] = 500 g/ha, scale 0 to 10 (0: no effects, 10: complete death)

Cc1cccc(C2=NOC(C)(COCc3c(F)cccc3F)C2)c1 (stereo not drawn) [Reference F]
Herbicidal efficacy, Echinochloa crusgalli ([1]; 62.5 g/ha, scale 0 to 10): 0
Herbicidal efficacy, Echinochloa crusgalli ([1]; 125 g/ha, scale 0 to 10): 1
Herbicidal efficacy, Echinochloa crusgalli ([1]; 250 g/ha, scale 0 to 10): 5
Herbicidal efficacy, Echinochloa crusgalli [1, 19]: 10
Phytotoxicity, Soybean [2]: 0
Phytotoxicity, Wheat [3]: 0
Herbicidal efficacy, Digitaria sanguinalis ([4]; 62.5 g/ha): 1
Herbicidal efficacy, Digitaria sanguinalis ([4]; 125 g/ha): 2
Herbicidal efficacy, Digitaria sanguinalis ([4]; 250 g/ha): 6
Herbicidal efficacy, Digitaria sanguinalis ([4]; 500 g/ha): 10
Herbicidal efficacy, Digitaria sanguinalis ([5]; post-emergence, 125 g/ha): 0
Herbicidal efficacy, Digitaria sanguinalis ([5]; post-emergence, 250 g/ha): 3
Herbicidal efficacy, Digitaria sanguinalis ([5]; post-emergence, 500 g/ha): 4
Herbicidal efficacy, Digitaria sanguinalis ([5]; post-emergence, 1,000 g/ha): 6
Herbicidal efficacy, Alopecurus myosuroides ([6]; post-emergence, 125 g/ha): 0
Herbicidal efficacy, Alopecurus myosuroides ([6]; post-emergence, 250 g/ha): 0
Herbicidal efficacy, Alopecurus myosuroides ([6]; post-emergence, 500 g/ha): 2
Herbicidal efficacy, Alopecurus myosuroides ([6]; post-emergence, 1,000 g/ha): 4
Phytotoxicity, Cotton [7]: 0
Herbicidal efficacy, Poa annua ([8]; post-emergence, 125 g/ha): 0
Herbicidal efficacy, Poa annua ([8]; post-emergence, 250 g/ha): 3
Herbicidal efficacy, Poa annua ([8]; post-emergence, 500 g/ha): 5
Herbicidal efficacy, Poa annua ([8]; post-emergence, 1,000 g/ha): 6
Phytotoxicity, Cotton [9]: 0
Herbicidal efficacy, Poa annua ([10]; 62.5 g/ha): 0
Herbicidal efficacy, Poa annua ([10]; 125 g/ha): 0
Herbicidal efficacy, Poa annua ([10]; 250 g/ha): 5
Herbicidal efficacy, Poa annua ([10]; 500 g/ha): 9
Phytotoxicity, Corn [11]: 2
Herbicidal efficacy, Echinochloa crusgalli ([12]; post-emergence, 125 g/ha): 0
Herbicidal efficacy, Echinochloa crusgalli ([12]; post-emergence, 250 g/ha): 3
Herbicidal efficacy, Echinochloa crusgalli ([12]; post-emergence, 500 g/ha): 4
Herbicidal efficacy, Echinochloa crusgalli ([12]; post-emergence, 1,000 g/ha): 6
Phytotoxicity, Wheat [13]: 0
Phytotoxicity, Corn [14]: 1
Phytotoxicity, Rice [15]: 0
Herbicidal efficacy, Alopecurus myosuroides ([16]; 62.5 g/ha): 0
Herbicidal efficacy, Alopecurus myosuroides ([16]; 125 g/ha): 0
Herbicidal efficacy, Alopecurus myosuroides ([16]; 250 g/ha): 0
Herbicidal efficacy, Alopecurus myosuroides ([16]; 500 g/ha): 3
Phytotoxicity, Soybean [17]: 0
Phytotoxicity, Rice [18]: 0

Cc1ccccc1C1=NOC(C)(COCc2ccccc2)C1 (stereo not drawn) [Reference C]
Herbicidal efficacy, Echinochloa crusgalli ([1]; 62.5 g/ha, scale 0 to 10): 2
Herbicidal efficacy, Echinochloa crusgalli ([1]; 125 g/ha, scale 0 to 10): 5
Herbicidal efficacy, Echinochloa crusgalli ([1]; 250 g/ha, scale 0 to 10): 8
Herbicidal efficacy, Echinochloa crusgalli [1, 19]: 10
Phytotoxicity, Soybean [2]: 1
Phytotoxicity, Wheat [3]: 0
Herbicidal efficacy, Digitaria sanguinalis ([4]; 62.5 g/ha): 0
Herbicidal efficacy, Digitaria sanguinalis ([4]; 125 g/ha): 6
Herbicidal efficacy, Digitaria sanguinalis ([4]; 250 g/ha): 9
Herbicidal efficacy, Digitaria sanguinalis ([4]; 500 g/ha): 10
Herbicidal efficacy, Digitaria sanguinalis ([5]; post-emergence, 125 g/ha): 1
Herbicidal efficacy, Digitaria sanguinalis ([5]; post-emergence, 250 g/ha): 3
Herbicidal efficacy, Digitaria sanguinalis ([5]; post-emergence, 500 g/ha): 4
Herbicidal efficacy, Digitaria sanguinalis ([5]; post-emergence, 1,000 g/ha): 7
Herbicidal efficacy, Alopecurus myosuroides ([6]; post-emergence, 125 g/ha): 0
Herbicidal efficacy, Alopecurus myosuroides ([6]; post-emergence, 250 g/ha): 0
Herbicidal efficacy, Alopecurus myosuroides ([6]; post-emergence, 500 g/ha): 3
Herbicidal efficacy, Alopecurus myosuroides ([6]; post-emergence, 1,000 g/ha): 5
Phytotoxicity, Cotton [7]: 0
Herbicidal efficacy, Poa annua ([8]; post-emergence, 125 g/ha): 0
Herbicidal efficacy, Poa annua ([8]; post-emergence, 250 g/ha): 2
Herbicidal efficacy, Poa annua ([8]; post-emergence, 500 g/ha): 3
Herbicidal efficacy, Poa annua ([8]; post-emergence, 1,000 g/ha): 4
Phytotoxicity, Cotton [9]: 1
Herbicidal efficacy, Poa annua ([10]; 62.5 g/ha): 2
Herbicidal efficacy, Poa annua ([10]; 125 g/ha): 5
Herbicidal efficacy, Poa annua ([10]; 250 g/ha): 9
Herbicidal efficacy, Poa annua ([10]; 500 g/ha): 9
Phytotoxicity, Corn [11]: 2
Herbicidal efficacy, Echinochloa crusgalli ([12]; post-emergence, 125 g/ha): 1
Herbicidal efficacy, Echinochloa crusgalli ([12]; post-emergence, 250 g/ha): 3
Herbicidal efficacy, Echinochloa crusgalli ([12]; post-emergence, 500 g/ha): 4
Herbicidal efficacy, Echinochloa crusgalli ([12]; post-emergence, 1,000 g/ha): 7
Phytotoxicity, Wheat [13]: 0
Phytotoxicity, Corn [14]: 1
Phytotoxicity, Rice [15]: 0
Herbicidal efficacy, Alopecurus myosuroides ([16]; 62.5 g/ha): 0
Herbicidal efficacy, Alopecurus myosuroides ([16]; 125 g/ha): 2
Herbicidal efficacy, Alopecurus myosuroides ([16]; 250 g/ha): 4
Herbicidal efficacy, Alopecurus myosuroides ([16]; 500 g/ha): 6
Phytotoxicity, Soybean [17]: 0
Phytotoxicity, Rice [18]: 0

Cc1ccccc1C1=NOC(C)(COCc2c(F)cccc2Cl)C1 (stereo not drawn) [Reference E]
Herbicidal efficacy, Echinochloa crusgalli ([1]; 62.5 g/ha, scale 0 to 10): 2
Herbicidal efficacy, Echinochloa crusgalli ([1]; 125 g/ha, scale 0 to 10): 5
Herbicidal efficacy, Echinochloa crusgalli ([1]; 250 g/ha, scale 0 to 10): 8
Herbicidal efficacy, Echinochloa crusgalli [1, 19]: 10
Phytotoxicity, Soybean [2]: 0
Phytotoxicity, Wheat [3]: 0
Herbicidal efficacy, Digitaria sanguinalis ([4]; 62.5 g/ha): 0
Herbicidal efficacy, Digitaria sanguinalis ([4]; 125 g/ha): 5
Herbicidal efficacy, Digitaria sanguinalis ([4]; 250 g/ha): 9
Herbicidal efficacy, Digitaria sanguinalis ([4]; 500 g/ha): 10
Herbicidal efficacy, Digitaria sanguinalis ([5]; post-emergence, 125 g/ha): 0
Herbicidal efficacy, Digitaria sanguinalis ([5]; post-emergence, 250 g/ha): 1
Herbicidal efficacy, Digitaria sanguinalis ([5]; post-emergence, 500 g/ha): 6
Herbicidal efficacy, Digitaria sanguinalis ([5]; post-emergence, 1,000 g/ha): 7
Herbicidal efficacy, Alopecurus myosuroides ([6]; post-emergence, 125 g/ha): 0
Herbicidal efficacy, Alopecurus myosuroides ([6]; post-emergence, 250 g/ha): 0
Herbicidal efficacy, Alopecurus myosuroides ([6]; post-emergence, 500 g/ha): 2
Herbicidal efficacy, Alopecurus myosuroides ([6]; post-emergence, 1,000 g/ha): 4
Phytotoxicity, Cotton [7]: 3
Herbicidal efficacy, Poa annua ([8]; post-emergence, 125 g/ha): 0
Herbicidal efficacy, Poa annua ([8]; post-emergence, 250 g/ha): 2
Herbicidal efficacy, Poa annua ([8]; post-emergence, 500 g/ha): 6
Herbicidal efficacy, Poa annua ([8]; post-emergence, 1,000 g/ha): 7
Phytotoxicity, Cotton [9]: 0
Herbicidal efficacy, Poa annua ([10]; 62.5 g/ha): 2
Herbicidal efficacy, Poa annua ([10]; 125 g/ha): 5
Herbicidal efficacy, Poa annua ([10]; 250 g/ha): 9
Herbicidal efficacy, Poa annua ([10]; 500 g/ha): 10
Phytotoxicity, Corn [11]: 3
Herbicidal efficacy, Echinochloa crusgalli ([12]; post-emergence, 125 g/ha): 0
Herbicidal efficacy, Echinochloa crusgalli ([12]; post-emergence, 250 g/ha): 2
Herbicidal efficacy, Echinochloa crusgalli ([12]; post-emergence, 500 g/ha): 5
Herbicidal efficacy, Echinochloa crusgalli ([12]; post-emergence, 1,000 g/ha): 6
Phytotoxicity, Wheat [13]: 0
Phytotoxicity, Corn [14]: 0
Phytotoxicity, Rice [15]: 0
Herbicidal efficacy, Alopecurus myosuroides ([16]; 62.5 g/ha): 0
Herbicidal efficacy, Alopecurus myosuroides ([16]; 125 g/ha): 0
Herbicidal efficacy, Alopecurus myosuroides ([16]; 250 g/ha): 4
Herbicidal efficacy, Alopecurus myosuroides ([16]; 500 g/ha): 9
Phytotoxicity, Soybean [17]: 1
Phytotoxicity, Rice [18]: 0
